{
  "source": "patent US7037656B2",
  "about": "“Methods and compositions for identifying ligands for nuclear receptors” (priority 2000, dated 2006)",
  "key": {"[1]": {"biological_target": "T1, Aa AB EcR/Aa USPa and SMRT (Aedes aegypti, UniProt P49880)", "T1 construct": "human ubiquitin (76 aa) (N, cleaved yes); expressed in transfected cells; host or cells: yeast (Saccharomyces cerevisiae)", "T1 sequence (P49880 with tags, fused parts or gaps)": "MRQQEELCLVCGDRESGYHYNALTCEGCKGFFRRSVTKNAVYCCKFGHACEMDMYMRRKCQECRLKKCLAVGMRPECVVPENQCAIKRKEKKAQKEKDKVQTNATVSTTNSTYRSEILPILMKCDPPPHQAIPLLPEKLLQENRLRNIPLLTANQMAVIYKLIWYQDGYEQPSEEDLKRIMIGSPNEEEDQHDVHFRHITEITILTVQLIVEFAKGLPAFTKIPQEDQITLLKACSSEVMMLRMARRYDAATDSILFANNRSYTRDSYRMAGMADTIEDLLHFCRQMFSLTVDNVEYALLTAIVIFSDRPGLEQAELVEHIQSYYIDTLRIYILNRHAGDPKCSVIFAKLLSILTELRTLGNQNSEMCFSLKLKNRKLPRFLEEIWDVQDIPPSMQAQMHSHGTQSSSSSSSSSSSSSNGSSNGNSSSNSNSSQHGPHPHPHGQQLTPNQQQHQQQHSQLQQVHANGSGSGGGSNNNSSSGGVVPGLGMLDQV", "assay": "Yeast 6x EcRE-lacZ reporter assay with SMRT (ligand-dependent down regulation)", "format": "cell-based", "conditions": "10 μM; Aa AB EcR/Aa USPa co-expressed with SMRT, constitutive reporter expression without ligand (FIG. 10A)", "source_text": "FIGS. 10A and 10B are graphs showing the roles of the coactivators and co-repressors in transactivation of AaΔEcR. Interaction of different transcriptional factors in combination with the heterodimers AaΔEcR/USPa or AaΔEcR/USPb (FIG. 10A). […] The yeast strains carrying the reporter plasmid which contains 6 EcRE response elements coupled with E. coli β gal gene in combination with the presence of different plasmids for expression of different USPs, AaΔEcR and coactivators/repressors. The final concentration of all ecdysteroid analogues was 10 μM. The data are presented as a median set of at least 8 independent experiments plus SD.\n(§1) Briefly, yeast cells are cultured in 5 mL of YPD liquid medium overnight at 30° C. The cell culture was diluted 1:20 in YPD media and further grown until cell density reached an O.D of 0.6. at OD600. The cells were pelleted by centrifugation and washed with 10 mL of TE+0.1M lithium acetate. Cells are then resuspended in 10 mL TE+0.1M lithium acetate and incubated at 30° C. for 1 hour. Cells are collected and resuspended in 0.5 mL of TE+ 0.1M lithium acetate. Aliquots of cells (50 μL), were incubated for 15 minutes at 30° C. with 1–2 μg plasmid DNA in the presence of 5 μg of denatured salmon sperm DNA as DNA carrier. In the case of co-transformation, the indicated plasmids were added simultaneously. […]"}, "[2]": {"biological_target": "T2, Dm ΔN EcR +Aa USPb-form + GRIP1 (Drosophila melanogaster, UniProt P34021)", "T2 construct": "ubiquitin (human, 76 aa) (N, cleaved yes); expressed in transfected cells", "T2 sequence (P34021 221-878, stated change not applied)": "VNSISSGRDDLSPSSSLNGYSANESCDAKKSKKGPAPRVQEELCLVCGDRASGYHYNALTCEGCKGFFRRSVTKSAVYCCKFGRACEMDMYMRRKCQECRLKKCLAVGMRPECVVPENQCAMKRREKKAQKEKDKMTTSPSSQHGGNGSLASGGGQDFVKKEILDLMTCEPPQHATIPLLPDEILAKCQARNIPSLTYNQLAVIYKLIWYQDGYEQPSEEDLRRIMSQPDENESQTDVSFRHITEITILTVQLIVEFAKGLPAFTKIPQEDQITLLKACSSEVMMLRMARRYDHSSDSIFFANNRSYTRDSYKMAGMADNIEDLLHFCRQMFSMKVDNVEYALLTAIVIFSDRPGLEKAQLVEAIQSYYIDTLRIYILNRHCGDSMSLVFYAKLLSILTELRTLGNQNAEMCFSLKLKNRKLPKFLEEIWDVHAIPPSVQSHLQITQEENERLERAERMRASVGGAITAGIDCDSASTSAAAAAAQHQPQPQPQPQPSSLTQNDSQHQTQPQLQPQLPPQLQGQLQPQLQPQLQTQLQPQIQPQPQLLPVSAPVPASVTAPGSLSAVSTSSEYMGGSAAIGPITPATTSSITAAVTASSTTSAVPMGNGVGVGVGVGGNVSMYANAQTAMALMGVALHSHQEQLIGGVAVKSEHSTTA", "assay": "Yeast 6x EcRE-lacZ β-galactosidase transactivation assay", "format": "cell-based, Drosophila melanogaster; Aedes aegypti", "conditions": "RH 5992 10 μM, 4 hours, DMSO control 0.251", "protocol": "as §1, with “simultaneously. 50% polyethyleneglycol of molecular weight 4000, diluted in TE, was added to a final concentration of 35%.” for “simultaneously.”\n(§2) Using the transformation method set forth above, yeast were co-transformed with a reporter gene as shown in FIG. 2 and the expression vector encoding the full-length D. melanogaster ecdysone receptor, DmEcR (FIG. 3A) in the presence or absence of the Dm EcR heterodimer partner, DmUSP (FIG. 4A). […] As the N-terminal portion of the Dm EcR receptor is reported to play a role in ligand independent transactivation, an expression vector containing an N-terminal deletion in the EcR was constructed (see FIG. 3B) and assessed in the β-galactosidase assays described above. […]"}, "[3]": {"biological_target": "T3, Dm ΔN EcR +Aa USPa-form + GRIP1 (Drosophila melanogaster, UniProt P34021)", "T3 construct": "ubiquitin (human, 76 aa) (N, cleaved yes); expressed in transfected cells", "T3 sequence (P34021 221-878, stated change not applied)": "as above", "assay": "Yeast 6x EcRE-lacZ β-galactosidase transactivation assay", "format": "cell-based, Drosophila melanogaster; Aedes aegypti", "conditions": "RH 5992 10 μM, 4 hours, DMSO control 0.243", "protocol": "as §1, with “simultaneously. 50% polyethyleneglycol of molecular weight 4000, diluted in TE, was added to a final concentration of 35%.” for “simultaneously.”\nas §2"}},
  "data": [
    {"smiles": "CCc1ccc(C(=O)NN(C(=O)c2cc(C)cc(C)c2)C(C)(C)C)cc1", "note": "[RH 5992, tebufenozide]", "values": [
      {"measurement": "effect on reporter gene expression (in words)", "setting": "[1]", "value": "suppression of the levels of reporter gene expression"},
      {"measurement": "β-galactosidase activity", "setting": "[2]", "value": 2.068},
      {"measurement": "β-galactosidase activity", "setting": "[3]", "value": 1.860}
    ]}
  ]
}
